Data: patent publication US9642897B2, “Treatment of bone diseases” (THE UNIVERSITY OF SYDNEY, priority 2011, dated 2017)
Entries after “also recorded” stand apart in the source; their conditions may differ.

Key:
RUNX2, OCN and OPN = assay: Osteogenic gene expression (RUNX2, OCN, OPN) in differentiating MSC; format: cell-based, human
Procedure: (§1) Subsequently, the effect of chemical inhibition/stimulation of the intermediate and end products of kynurenine activation on osteogenic differentiating MSC was then characterised.
These compounds were added to the MSC media on day one of differentiation. […] Media was changed every three days. […]

[1] = Pharmacokinetics of oral PA: serum concentrations by GC-MS; format: in vivo, C57BL/6 mice
Description: Nine-month-old oophorectomised (OVX) and SHAM-operated C57BL/6 mice (n=24 per group) were obtained from the Animal Resources Centre (Perth, Wash.). After 2 weeks of acclimation, mice were divided into four groups (Table 2) and received treatment in their drinking water for a total of 6 weeks. Mice treated with plain water were used as controls. Mice were housed in cages in a limited access room.
For absorption analysis of minerals in the duodenum, tissue was dissected and left to dry up in room temperature. 100 mg of tissue were dissolved in nitric acid and concentrations of nine minerals was quantified in the tissue homogenates using an Agilent 5973 mass selective detector via an auto-sampler Agilent Technologies 7683, and controlled using Agilent ChemStation software (Agilent, Santa Clara, Calif., USA). For pharmacokinetic analysis of PA, serum of Pa- and vehicle-treated animals was obtained by centrifugation. 1 μl of serum was injected into an Agilent 6890 gas chromato-graph, interfaced to an Agilent 5973 mass selective detector via an auto-sampler Agilent Technologies 7683, and controlled using Agilent ChemStation software (Agilent, Santa Clara, Calif., USA).

[2] = test system: mesenchymal stem cells (MSC); assay: Mineralization (alizarin red staining) of osteogenic differentiating MSC; format: cell-based, human; details: MSC in OIM, 2 weeks
Procedure: Human mesenchymal stem cells (MSC) (BioWhittaker, Walkersville, Md., USA) were plated at a density of 5×10^5 cells per well in 150 cm^2 dishes containing MSC growth medium (GM) (BioWhittaker, Walkersville, Md., USA) with 10% fetal calf serum (FCS) and incubated at 37° C. After the cells reached 60% confluence, media was replaced with either GM or osteoblastogenesis induction media (OIM) (prepared with MSCGM, 10% FCS, […] dexamethasone, 10 mmol/L β glycerol phosphate and 50 μg/mL ascorbic acid) for 21 days. Media was changed every three days. Media obtained at the beginning of the 1st, 2nd and 3rd wk of differentiation as well as conditioned media were collected for measurement of IFNγ. Concentrations of IFNγ in the conditioned media were measured from both GM and OM treated cells using Human […] DuoSet ELISA Development Kit (R&D Systems, Minneapolis, Mich., USA). To compare between the osteogenic and the immune effect of IFNγ, Jurkat cells and human T lymphocytes were plated at a density of 5×10^5 cells per well in 150 cm^2 dishes containing RPMI media.
as §1
These compounds were added to the MSC media on day one of differentiation. Cells were treated for […]. Media was changed every three days. After three weeks of treatment, osteoblastogenesis and changes in osteogenic genes were quantified as described above.

Runx2 and OCN = assay: RT-PCR of Runx2 and OCN in bone marrow cells of PA-treated mice; format: in vivo, C57BL/6 mice; details: all PA-treated groups vs vehicle
Procedure: Bone marrow cells were flushed and isolated as previously described. Total RNA was extracted from marrow cells using a QIAGEN RNeasy Mini extraction kit following manufacturer's instructions (QIAGEN Pty, Doncaster, VIC, Australia; cat#74104). First strand complementary DNA (cDNA) synthesis was performed using 200 ng of total RNA, 50 ng random hexamers and 50 units reverse transcriptase at 42° C. for 1 hour, as described by manufacturer (Bioline Australia Pty, Alexandria, NSW, Australia; cat# BIO-65025). Real-time PCR for expressed genes as markers for osteogenesis was performed in duplicate in a total reaction volume of 25 μl, 10% of which was cDNA (or water for non-template control), 3 mM MgCl2 and 250 nM of each forward and reverse specific primer for target genes and normalizer. Primers for specific detection of mRNA expression included: […]
All PCRs were performed in a Corbett Rotor-Gene™ 3000 (QIAGEN Pty) using SYBR green with no-ROX reaction mix and a standard thermal profile as described by supplier (Bioline Australia Pty, Alexandria, NSW, Australia; cat# QT6750-02). Quantitative RT-PCR data was defined by threshold cycle (Ct) normalized for the housekeeping gene glyceraldehyde-3-phosphate dehydrogenase (GAPDH): […]

[3] = test system: bone marrow stromal cells (BMSC); assay: Ex vivo cultures of BMSC from PA-treated mice (alizarin red, ALP, CFU-OB); format: in vivo, C57BL/6 mice
Procedure: To establish adherent bone marrow cultures, both tibiae from PA- and vehicle-treated animals (n=6 per group) were flushed using a 21-gauge needle attached to a 10 ml syringe filled with Dulbecco's modified Eagle's Medium (DMEM) (GIBCO BRL, Gaithersburg, Md., USA). Cells from both tibiae were filtered through a cell strainer with 70-micron nylon mesh (BD Bioscience, Bedford, Mass., USA) and then combined to produce a volume of 2 ml containing ˜10^7 cells/ml. Six-well plate cultures were then established in triplicate, with each well containing a 100-μl aliquot of cell suspension combined with 4 ml of fresh -MEM medium. […]
To induce differentiation, a total of 10^4 cells were diluted in osteogenic medium (prepared with DMEM, 10% FCS, […] dexamethasone, 10 mmol/L β glycerol phosphate and 50 μg/mL ascorbic acid) and plated in six well plates. […] For alkaline phosphatase quantification, the colonies with more than 10% of cells staining positive for ALP were considered as colony forming units-osteoblasts (CFU-OB). For alizarin red quantification, matrix mineralization was quantified by extracting the Alizarin red staining with 100 mM cetypyridinium chloride (Sigma, St. Louis, Mo., USA) at room temperature for 3 h. The absorbance of the extracted Alizarin red S staining was measured at 570 nm.

[4] = highest dose (100 μM), 14 days post-induction

## O=C(O)c1ccccn1 [PA, pyridine-2-carboxylic acid]
RUNX2, OCN and OPN; differentiating MSC
  relative gene expression of RUNX2, OCN and OPN: increased
RUNX2, OCN and OPN; [4]
  RE of RUNX2: 1.43
  RE of osteocalcin: 1.93
  RE of osteopontin: 1.35
[1]; higher dose vs 0.5 gm/Kg/d
  serum concentrations of PA at higher dose: not followed by higher serum concentrations
[1]; low dose of PA
  serum concentrations of PA, OVX vs SHAM counterpart: lower serum concentrations
[1]; oral PA in drinking water, 6 weeks, Sham and OVX mice
  serum concentrations of PA: increased in the treated groups in a dose-dependent manner
[2]
  osteoblastogenesis / mineralisation (alizarin red): accelerated mineralisation; also recorded: stimulate osteoblastogenesis
Runx2 and OCN
  mRNA levels of osteogenic genes Runx2 and OCN: higher levels
[3]; SHAM and OVX mice treated 6 weeks, 2 weeks culture in osteogenic media
  capacity to mineralise (alizarin red), ex vivo BMSC: significantly capacity to mineralise
[3]; cultures from PA-treated vs vehicle treated mice
  number of colony forming units-osteoblasts (CFU-OB): significantly higher
